Assay results: patent publication US10273233B2, “Inhibitors of influenza viruses replication” (Vertex Pharmaceuticals Incorporated, priority 2015, dated 2019)

Experiments:
A/Port Chalmers/1/73 = assay: 3-day CP assay in MDCK cells; type: cell-based; conditions: Influenza A virus
A/St. Petersburg8/2006 = assay: 3-day CP assay in MDCK cells; type: cell-based; conditions: Influenza A virus
A/Victoria/3/75 = assay: 3-day CP assay in MDCK cells; type: cell-based; conditions: Influenza A virus
B/Russia/69 = assay: 3-day CP assay in MDCK cells; type: cell-based; conditions: Influenza B virus
A/California/07/2009 = assay: 3-day CP assay in MDCK cells; type: cell-based; conditions: Influenza A virus, H1N1, MDCK, in Sus scrofa
A/Aichi/2/68 = assay: 3-day CP assay in MDCK cells; type: cell-based; conditions: Influenza A virus
A/Virginia/01/2006 = assay: 3-day CP assay in MDCK cells; type: cell-based; conditions: Influenza A virus
A/Mal/302/54 = assay: 3-day CP assay in MDCK cells; type: cell-based; conditions: Influenza A virus
A/Swine/Iowa/15/30 = assay: microbe, parasite or virus in culture; type: cell-based, influenza A; conditions: read-out: EC50

For CC(C)(C)[C@@H](CC(=O)O)Nc1nc(-c2c[nH]c3ncc(F)cc23)ncc1F [Compound (1)], the EC50 (A/Port Chalmers/1/73) was 2.3 nM, the EC50 (A/St. Petersburg8/2006) was 1.3 nM and the EC50 (A/Victoria/3/75) was 2.1 nM. The EC50 (B/Russia/69) was over 10000 nM, the EC50 (A/California/07/2009) was 4 nM and the EC50 (A/Aichi/2/68) was 4.4 nM. The EC50 (A/Virginia/01/2006) was 12 nM, the EC50 (A/Mal/302/54) was 3.9 nM and the EC50 (A/Swine/Iowa/15/30) was 4.3 nM.
